Here are results for six molecules from US8710074B2, “Dihydronaphthyridinyl(organo)methanone analogs as positive allosteric mGluR5 modulators” (Vanderbilt University, priority 2011, dated 2014).

Broadly, the EC50 is the concentration at which the effect is half-maximal.

A value given as a limit tells only on which side of the number the result lay.

human mGluR5, sequence (P41594 21-1180 isoform P41594-2 limits assumed): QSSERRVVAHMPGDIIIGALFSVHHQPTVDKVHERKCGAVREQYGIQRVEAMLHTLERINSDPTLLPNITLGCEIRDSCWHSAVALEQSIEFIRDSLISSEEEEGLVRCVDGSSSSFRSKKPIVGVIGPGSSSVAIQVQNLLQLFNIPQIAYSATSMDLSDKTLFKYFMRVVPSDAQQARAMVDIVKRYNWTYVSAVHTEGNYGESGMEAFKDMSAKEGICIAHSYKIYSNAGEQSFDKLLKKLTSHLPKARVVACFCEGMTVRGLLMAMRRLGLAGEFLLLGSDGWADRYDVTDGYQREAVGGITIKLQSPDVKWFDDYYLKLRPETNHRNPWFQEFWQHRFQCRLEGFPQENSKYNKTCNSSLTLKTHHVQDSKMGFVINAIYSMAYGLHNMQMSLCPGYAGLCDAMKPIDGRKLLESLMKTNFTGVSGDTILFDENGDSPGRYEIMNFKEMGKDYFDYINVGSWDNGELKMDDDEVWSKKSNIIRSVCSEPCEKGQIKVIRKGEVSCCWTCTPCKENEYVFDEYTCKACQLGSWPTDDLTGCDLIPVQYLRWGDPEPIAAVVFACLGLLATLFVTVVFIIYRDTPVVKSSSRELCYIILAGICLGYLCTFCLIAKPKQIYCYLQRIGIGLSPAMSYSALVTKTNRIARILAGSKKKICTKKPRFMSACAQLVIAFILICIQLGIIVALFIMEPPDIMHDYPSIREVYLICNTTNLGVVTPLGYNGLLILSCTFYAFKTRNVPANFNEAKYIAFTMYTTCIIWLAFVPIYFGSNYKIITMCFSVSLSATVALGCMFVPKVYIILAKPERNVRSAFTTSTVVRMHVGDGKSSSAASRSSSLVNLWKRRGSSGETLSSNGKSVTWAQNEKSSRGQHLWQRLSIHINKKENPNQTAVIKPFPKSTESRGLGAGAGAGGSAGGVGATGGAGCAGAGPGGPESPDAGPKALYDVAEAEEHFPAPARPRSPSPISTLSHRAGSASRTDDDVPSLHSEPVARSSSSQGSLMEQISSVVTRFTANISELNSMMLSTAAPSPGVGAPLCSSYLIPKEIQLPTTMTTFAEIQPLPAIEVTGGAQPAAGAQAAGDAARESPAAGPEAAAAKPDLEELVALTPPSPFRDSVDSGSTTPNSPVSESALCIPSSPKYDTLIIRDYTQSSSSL

This assay concerns the target human mGluR5 (Homo sapiens, UniProt P41594). The experiment in a line: Cell-based functional assay: Ca2+ mobilization (FDSS), potentiation of glutamate EC20 response. As to conditions: HEK cells transfected with human mGluR5 (H10H or H12H cell line); positive allosteric modulation in presence of glutamate EC20. The procedure: Human embryonic kidney (HEK) cells transfected with rat mGluR5 were plated in clear bottom assay plates for assay in a Functional Drug Screening System (FDSS). In the alternative assay, HEK cells transfected with human mGluR5 were plated for assay in the FDSS. In some cases the HEK cells transfected with human mGluR5 were the H10H cell line. Alternatively, the HEK cells transfected with human mGluR5 were the H12H cell line. […] The cells were loaded with a Ca^2+-sensitive fluorescent dye (e.g., Fluo-4), and the plates were washed and placed in the FDSS instrument. After establishment of a fluorescence baseline for twelve seconds, the compounds of the present invention were added to the cells, and the response in cells was measured. Alternatively, in various further aspects, after establishment of a fluorescence baseline for about three seconds, the compounds of the present invention were added to the cells, and the response in cells was measured. Five minutes later, an mGluR5 agonist (e.g., glutamate, 3,5-dihydroxyphenylglycine, or quisqualate) was added to the cells, and the response of the cells was measured. Potentiation of the agonist response of mGluR5 by the compounds in the present invention was observed as an increase in response to non-maximal concentrations of agonist (here, glutamate) in the presence of compound compared to the response to agonist in the absence of compound.
The above described assay operated in two modes. In the first mode, a range of concentrations of the present compounds were added to cells, followed by a single fixed concentration of agonist. If a compound acted as a potentiator, an EC50 value for potentiation and a maximum extent of potentiation by the compound at this concentration of agonist was determined by non-linear curve fitting. In the second mode, several fixed concentrations of the present compounds were added to various wells on a plate, followed by a range of concentrations of agonist for each concentration of present compound; the EC50 values for the agonist at each concentration of compound were determined by non-linear curve fitting. A decrease in the EC50 value of the agonist with increasing concentrations of the present compounds (a leftward shift of the agonist concentration-response curve) is an indication of the degree of mGluR5 potentiation at a given concentration of the present compound. An increase in the EC50 value of the agonist with increasing concentrations of the present compounds (a rightward shift of the agonist concentration-response curve) is an indication of the degree of mGluR5 antagonism at a given concentration of the present compound. The second mode also indicates whether the present compounds also affect the maximum response to mGluR5 to agonists.
Table 1 below lists specific compounds as well as experimentally determined mGluR5 activity determined in a cell-based assay. The examples shown in Table I are provided so that the invention might be more fully understood, and these examples are illustrative only and should not be construed as limiting the invention in any way. The mGluR5 activity was determined using the metabotropic glutamate receptor activity assays in human embryonic kidney cells as described herein, wherein the human embryonic kidney cells were transfected with human mGluR5. The compounds in Table 1 were synthesized with methods identical or analogous to those shown herein. The column labeled “Rxn” and the data thereunder indicated in Table 1 refers to the Reaction Scheme number described above. The requisite starting materials were commercially available, described in the literature, or readily synthesized by one skilled in the art of organic synthesis. Compounds shown in Table I are depicted having a basic group or acidic group and named as the free base acid. […]
For the molecule `O=C(c1ccc(F)cc1)N1CCc2ncc(COc3ccccc3)cc2C1` [Compound 1, (4-Fluorophenyl)(3-(phenoxymethyl)-7,8-dihydro-1,6-naphthyridin-6(5H)-yl)methanone], the EC50 stood at 380 nM.

For `O=C(c1ccc(F)cc1)N1CCc2ncc(COc3cccc(F)c3)cc2C1` [Compound 2, (3-((3-fluorophenoxy)methyl)-7,8-dihydro-1,6-naphthyridin-6(5H)-yl) (4-fluorophenyl)methanone], the EC50 was determined as 690 nM.

As for `O=C(c1ccc(F)cc1)N1CCc2ncc(COc3ccc(F)cc3)cc2C1` [Compound 3, (3-((4-fluorophenoxy)methyl)-7,8-dihydro-1,6-naphthyridin-6(5H)-yl)(4-fluorophenyl)methanone], the EC50 was found to be 910 nM.

Take `CC(C)(C)OC(=O)N1CCc2ncc(OCc3cccc(F)c3)cc2C1` [Compound 4]: the EC50 is > 30000 nM.

`O=C(c1cccc(F)c1)N1CCc2ncc(OCc3cccc(F)c3)cc2C1` [Compound 5]: the EC50 was > 30000 nM.

Turning to `O=C(C1CC1)N1CCc2ncc(OCc3cccc(F)c3)cc2C1` [Compound 6], the half-maximal effective concentration (EC50) was > 30000 nM.
